According to patent US8101180B2, “Anti-IGF-IR and/or anti-insulin/IGF-I hybrid receptors antibodies and uses thereof” (Pierre Fabre Medicament, priority 2002, dated 2012):

What was measured:
P388 murine leukemia = P388 murine leukemia grafted intravenously, survival (T/C); type: in vivo, CDF1 mice
Method: The compound is administered intraperitoneally in a single dose on day 1. The protocol for this test is described by Kruczynski A. et al., Cancer Chemotherapy and Pharmacology, 1998, volume 41, pages 437 to 447.
Conventionally, the in vivo activity of cytotoxic compounds is expressed by the T/C at a dose expressed in mg per kg. The T/C corresponds to the ratio, multiplied by 100, of the median of the survival time of the treated animals to the median of the survival time of the control animals.
The protocol for this test is described by Kruczynski A. et al., Cancer Chemotherapy and Pharmacology, 1998, volume 41, pages 437 to 447.
To do this, a total of 10^6 P388 murine leukemia cells were implanted i.v. in CDF1 mice on day 0. After randomization of the animals in cages for treatment with each alkaloid and control cages, the compounds were administered i.p. on day 1.
Conventionally, the in vivo activity of compounds is expressed by the increase in survival time. The survival time is expressed by the T/C at a dose expressed in mg per kg (mg/kg). The T/C corresponds to the ratio, multiplied by 100, of the median of the survival time of the treated animals to the median of the survival time of the control animals. In agreement with the standard criteria of the NCl, a T/C of 120 corresponds to a minimum level for concluding that activity is present.
A T/C below 75 expresses toxicity of the test compound at the dose administered.

A549 tumor = assay: A549 non-small cell lung tumor subcutaneous xenograft; type: in vivo, nude mice; settings: RDV, SDV […], 4 i.p. injections 7 days apart; conjugates […] agent and 250 μg/dose antibody
Method: Navelbine is a chemotherapy compound indicated in non-small cell cancer of the lung and in metastatic cancer of the breast. […] For this study, 5·10^6 A549 cells were grafted subcutaneously on the right flank of the mouse. Five days after the cell graft, the tumors are measurable and the treatments with MAb and/or navelbine are commenced. The MAb dose is always 250 μg/dose/mouse, twice per week, intra-peritoneally. Concerning navelbine, it will be administered at the maximum dose tolerated by the mouse or 10 mg/kg, intraperitoneally. For this treatment three injections will be carried out at intervals of 7 days. During the coadministrations, the two products are mixed before injection.
For this study, nude mice are grafted s.c. with 5·10^6 A549 cells. Five days after the cell graft, the tumors are measured and a homogeneous batch of mice in terms of tumor volume is formed. Starting from this batch, groups of 6 mice are generated at random.
To do this, 5·10^6 A549 cells were implanted subcutaneously in nude mice. Five days after this implantation, the tumors were measured and groups of 6 mice were formed. […] This granule is essential to the establishment of any E2-dependent human tumor in this animal species.
These conjugates are administered according to the same modes as the groups given the chemotherapy compounds alone; • the animals of the control batch are given injections of PBS, administered according to the same frequency.
The weight of the mice and the tumor volume are evaluated twice a week. The tumor volumes are calculated according to the formula: ½ (length·width·height).

MCF-7 cells [1] = assay: Apoptosis of MCF-7 cells (Annexin V-FITC/DAPI flow cytometry); type: cell-based, human; settings: doxorubicin 2 μg/ml, 24 hours, IGF-I 50 ng/ml
Method: As indicated above, IGF-IR is capable of conferring protection against apoptosis when it is overexpressed on the surface of cells. […] In these experiments, the MCF-7 cells are inoculated at 2·10^4/cm^2 in Petri dishes and cultured for 24 h in RPMI without phenol red supplemented with 10% of fetal calf serum (FCS). The cells are then washed twice with PBS and put back into culture in medium with 0% FCS. They are allowed an adaptation time of 10 minutes at 37° C. before the addition of the antibodies at 10 μg/ml. After an extra 10 minutes at 37° C., recombinant IGF-I (Sigma) is added to the culture medium to a final concentration of 50 ng/ml. The cells are left at 37° C. again for one hour in order to allow the attachment of the antibodies and of the IGF-I. Finally, the doxorubicin (Sigma) is added to the culture medium at 2 μg/ml and the cells are incubated for 24 hours at 37° C.
The experiments have likewise been conducted with navelbine at a concentration of 10 μg/ml.
The analysis of the cell viability is carried out by flow cytometric analysis after labeling with the annexin V-FITC (20 minutes, 4° C.) and DAPI (2 μg/ml). The percentage of dead cells considered is the labeled population Annexin+/DAPI+. The antibody 5C2 is used as a control isotype.

MCF-7 cells [2] = assay: Cell cycle of MCF-7 cells with IGF1; type: cell-based, human
Method: The inhibition of the cell growth observed in vitro on the line MCF-7 should be manifested by an effect on the cell cycle. In order to reply to this question, 4·10^5 cells are inoculated into 6-well plates. […] After incubation for 24 hours, the cells are recovered for the study of the cell cycle.

[3] = dose 0.63 mg/kg i.p. single dose day 1, T/C = median survival treated/control ×100, below 75 = toxicity
[4] = dose 1.25 mg/kg i.p. single dose day 1
[5] = dose 5 mg/kg i.p. single dose day 1
[6] = dose 10 mg/kg i.p. single dose day 1
[7] = after addition of IGF1, 24 hours ([…] in the absence of IGF1)

Molecule | T/C (P388 murine leukemia; [3]) | T/C (P388 murine leukemia; [4]) | T/C (P388 murine leukemia; [5]) | T/C (P388 murine leukemia; [6]) | A549 tumor growth, deoxyvinblastines alone or coupled to h7C10 (A549 tumor) | T/C (P388 murine leukemia; dose 20 mg/kg i.p. single dose day 1) | T/C (P388 murine leukemia; dose 40 mg/kg i.p. single dose day 1) | apoptosis, percentage of MCF-7 cells (MCF-7 cells [1]) | proportion of MCF-7 cells in G2/M phase (MCF-7 cells [2]; after addition of IGF1, 24 hours (4% in the absence of IGF1)) | proportion of MCF-7 cells in G0/G1 phase (MCF-7 cells [2]; [7]) | proportion of MCF-7 cells in S phase (MCF-7 cells [2]; [7])
CC[C@@H]1C[C@@H]2CN(CCc3c([nH]c4ccccc34)[C@@](C(=O)OC)(c3cc4c(cc3OC)N(C)[C@H]3[C@@](O)(C(=O)OC)[C@H](OC(C)=O)[C@]5(CC)C=CCN6CC[C@]43[C@@H]65)C2)C1 [4′-S-deoxyvinblastine, 4′-S deoxyvinblastine] | 114 | 143 | 100 | 57 | evolve in the same manner as the control group |  |  |  |  |  | 
CCC1CC2CN(CCc3c([nH]c4ccccc34)[C@@](C(=O)OC)(c3cc4c(cc3OC)N(C)[C@H]3C(O)(C(=O)OC)[C@H](OC(C)=O)[C@]5(CC)C=CCN6CC[C@]43[C@@H]65)C2)C1 (stereo partly drawn) [4′-R-deoxyvinblastine, 4′-R deoxyvinblastine] | 100 | 100 | 143 | 200 | evolve in the same manner as the control group | 214 | 43 |  |  |  | 
COc1cccc2c1C(=O)c1c(O)c3c(c(O)c1C2=O)C[C@@](O)(C(=O)CO)C[C@@H]3O[C@H]1C[C@H](N)[C@H](O)[C@H](C)O1 [doxorubicin, reference compound] |  |  |  |  |  |  |  | 8% |  |  | 
CC[C@]1(O)C[C@@H]2CN(CCc3c([nH]c4ccccc34)[C@@](C(=O)OC)(c3cc4c(cc3OC)N(C)[C@H]3[C@@](O)(C(=O)OC)[C@H](OC(C)=O)[C@]5(CC)C=CCN6CC[C@]43[C@@H]65)C2)C1 [vinblastine, reference compound] | 114 | 114 | 143 | 57 |  |  |  |  |  |  | 
CC[C@]1(O)C[C@H]2CN(CCc3c([nH]c4ccccc34)[C@@](C(=O)OC)(c3cc4c(cc3OC)N(C=O)[C@H]3[C@@](O)(C(=O)OC)[C@H](OC(C)=O)[C@]5(CC)C=CCN6CC[C@]43[C@@H]65)C2)C1 [vincristine, reference compound] | 114 | 143 | 100 | 57 |  |  |  |  |  |  | 
IGF1: insulin-like growth factor 1, native ligand of IGF-IR |  |  |  |  |  |  |  |  | 12.7% | 56.3% | 31%
